Measurements taken from patent US20240285770A1, “PRECIPITATION SUPPRESSING AGENT” (Nippon Shinyaku Co., Ltd., priority 2021, published 2024).
Read-outs that look alike come from different tables or passages of the source.

Key:
[1] = Plasma concentrations and estimation of urinary PMO No. 12 concentration after administration to cynomolgus monkeys; format: in vivo; conditions: male cynomolgus monkeys; for Plasma concentration 0 hr (a) / Plasma concentration 0.25 hr (b) / Plasma concentration 0.5 hr (c) / Plasma concentration 1 hr (d) / Plasma concentration 2 hr (e) / Plasma concentration 6 hr (f) / Plasma concentration 24 hr (g): average of 3 animals; for Estimated urinary concentration at 0.25 hr (l): amount of urine up to 0.25 hr assumed 3.91 mL; for Average plasma concentration from 0 hr to 0.25 hr (j): average of values a and b; for Amount excreted up to 0.25 hr (k): calculated by using CLtot
Method: (§1) For setting the test conditions such as the concentrations of sugar and antisense oligomers assumed to be in urine, D-mannitol, which is […] and corresponds to a reduced form of D-mannose, and antisense oligomers were administered to cynomolgus monkeys, and the urinary concentration shortly after administration were estimated from the changes in plasma concentrations and the total body clearance.
From the values, the area under the plasma concentration-time curve (AUC0-24 hr) up to 24 hours after administration and the total body clearance (CLtot) were calculated (the values h and i in Table 3). Further, the plasma concentrations at 0 hours and 0.25 hours after administration (the values a and b in Table 3) were averaged to obtain the average plasma concentration from 0 hours to 0.25 hours (the value j in Table 3), and the amount of antisense oligomer excreted per body weight up to 0.25 hours (the value k in Table 3) was calculated by using CLtot (the value i in Table 3). The amount of urine up to 0.25 hours after administration was assumed to be 3.91 mL, based on the fact that the daily amount of urine of cynomolgus monkeys (body weight: 5 kg) was 375 mL, and the urinary antisense oligomer concentration at 0.25 hours after administration was then estimated (the value 1 in Table 3).

[2] = Plasma concentrations and estimation of urinary D-mannitol concentration after administration to cynomolgus monkeys; format: in vivo; conditions: 500 mg/kg; for concentration at 4 h / concentration at 1 h / concentration at 8 h / AUC(0-t) / clearance: cynomolgus monkey, plasma; for concentration at 4 h / concentration at 1 h / concentration at 8 h / Plasma concentration 0 hr (a) / Plasma concentration 0.25 hr (b) / Plasma concentration 24 hr (f): average of 3 animals; for concentration at 1 h: read-out: Plasma concentration 1 hr (c); for concentration at 8 h: read-out: Plasma concentration 8 hr (e); for AUC(0-t): read-out: AUC0-24 hr (g); for clearance: read-out: CLtot (h) (converted); for Estimated urinary concentration at 0.25 hr (k): amount of urine up to 0.25 hr assumed 3.91 mL; for Average plasma concentration from 0 hr to 0.25 hr (i): average of values a and b; for Amount excreted up to 0.25 hr (j): calculated by using CLtot
Method: as §1
20% D-mannitol was diluted to 50 mg/mL with physiological saline, the diluted solution thus obtained was administered at 10 mL/kg to 3 male and 3 female cynomolgus monkeys aged 1 to 2 year-old, and the plasma concentrations were then measured at 0 hours (immediately after administration), 0.25 hours, 1 hour, 4 hours, 8 hours, and 24 hours after administration (each of the values a, b, c, d, e, and f in Table 2 was an average value of 3 animals). From the values, the area under the plasma concentration-time curve (AUC0-24 hr) up to 24 hours after administration and the total body clearance (CLtot) were calculated (the values g and h in Table 2). Further, the plasma concentrations at 0 hours and 0.25 hours after administration (the values a and b in Table 2) were averaged to obtain the average plasma concentration from 0 hours to 0.25 hours (the value i in Table 2), and the amount of D-mannitol excreted per body weight up to 0.25 hours (the value j in Table 2) was calculated by using CLtot (the value h in Table 2). The amount of urine up to 0.25 hours after administration was assumed to be 3.91 mL, based on the fact that the daily amount of urine of cynomolgus monkeys (body weight: 5 kg) was 375 mL (B Clark, D A Smith Pharmacokinetics and toxicity testing. Crit Rev Toxicol. 1984; 12 (4): 343-85.), and the urinary mannitol concentration at 0.25 hours after administration was then estimated (the value k in Table 2).
The estimated urinary concentration obtained as above was averaged, and the urinary concentration shortly after administration in a case of administering 500 mg/kg of D-mannitol was estimated to be 127.5 mg/mL. Since D-mannitol is rarely distributed in the body and rapidly excreted in urine without undergoing metabolism, it can be assumed that there is a linear relationship between the amount administered and the urinary concentration. Accordingly, by using the following formulas, the urinary concentration was converted into the amount of D-mannitol administered, and the amount administered was then converted into concentrations in the formulations at the time of administration (at the time of use) according to the body weight and the amount of dosing solution.

## PMO No. 12: phosphorodiamidate morpholino antisense oligomer, sequence CCTCCGGTTCTGAAGGTGTTC, 5′-end Group(2) (all phosphorodiamidate morpholino (PMO); further chemistry not fully specified)
[1]; 10 mg/kg
  AUC0-24 hr (h): 50.25 µg·h/mL
  CLtot (i): 199.0 mL/h/kg
  Plasma concentration 0 hr (a): 137.6 µg/mL
  Plasma concentration 0.25 hr (b): 30.95 µg/mL
  Plasma concentration 0.5 hr (c): 19.06 µg/mL
  Plasma concentration 1 hr (d): 9.79 µg/mL
  Plasma concentration 2 hr (e): 4.328 µg/mL
  Plasma concentration 6 hr (f): Below detection limit
  Plasma concentration 24 hr (g): Below detection limit
  Estimated urinary concentration at 0.25 hr (l): 5.362 mg/mL
  Average plasma concentration from 0 hr to 0.25 hr (j): 84.28 µg/mL
  Amount excreted up to 0.25 hr (k): 4193 µg/kg
[1]; 60 mg/kg
  AUC0-24 hr (h): 269.3 µg·h/mL
  CLtot (i): 222.8 mL/h/kg
  Plasma concentration 0 hr (a): 805.9 µg/mL
  Plasma concentration 0.25 hr (b): 154.7 µg/mL
  Plasma concentration 0.5 hr (c): 100.9 µg/mL
  Plasma concentration 1 hr (d): 45.93 µg/mL
  Plasma concentration 2 hr (e): 18.46 µg/mL
  Plasma concentration 6 hr (f): 1.045 µg/mL
  Plasma concentration 24 hr (g): Below detection limit
  Estimated urinary concentration at 0.25 hr (l): 34.21 mg/mL
  Average plasma concentration from 0 hr to 0.25 hr (j): 480.3 µg/mL
  Amount excreted up to 0.25 hr (k): 26753 µg/kg

## OC[C@@H](O)[C@@H](O)[C@H](O)[C@H](O)CO [D-Mannitol, D-mannitol]
[2]; female cynomolgus monkeys
  concentration at 4 h: 90.3 µg/mL
  concentration at 1 h: 720 µg/mL
  concentration at 8 h: 4870 ng/mL
  AUC(0-t): 2830 µg·h/mL
  clearance: 2.95 mL/min/kg
  Plasma concentration 0 hr (a): 2950 µg/mL
  Plasma concentration 0.25 hr (b): 1490 µg/mL
  Plasma concentration 24 hr (f): Below detection limit
  Estimated urinary concentration at 0.25 hr (k): 126 mg/mL
  Average plasma concentration from 0 hr to 0.25 hr (i): 2220 µg/mL
  Amount excreted up to 0.25 hr (j): 98235 µg/kg
[2]; male cynomolgus monkeys
  concentration at 4 h: 89.2 µg/mL
  concentration at 1 h: 651 µg/mL
  concentration at 8 h: 4670 ng/mL
  AUC(0-t): 2680 µg·h/mL
  clearance: 3.12 mL/min/kg
  Plasma concentration 0 hr (a): 2810 µg/mL
  Plasma concentration 0.25 hr (b): 1510 µg/mL
  Plasma concentration 24 hr (f): Below detection limit
  Estimated urinary concentration at 0.25 hr (k): 129 mg/mL
  Average plasma concentration from 0 hr to 0.25 hr (i): 2160 µg/mL
  Amount excreted up to 0.25 hr (j): 100980 µg/kg
[2]; cynomolgus monkeys, average of male and female estimates
  urinary concentration shortly after administration (estimated, averaged): 127.5 mg/mL
